Laboratory results as given in patent publication US6506567B2, “Water-soluble flourescent intercalator compound” (Fuji Photo Film Co., Ltd., priority 2000, dated 2003).

Experiments:
Assay type in all cases: binding
[1] = tested on: calf thymus DNA (hybrid DNA); assay: Rate of dissociation of intercalator from hybrid DNA (SDS addition, fluorescence over time); settings: SDS final concentration 0.5 vol. %; same buffer solution as the fluorescence test
Protocol: (§1) To the buffer solution containing hybrid DNA and intercalator which was employed above was added an aqueous sodium dodecylsulfate (SDS) solution to give a final SDS concentration of 0.5 vol. %. After the SDS solution was added, variation of the fluorescence strength at a lapse of time was measured. From the variation data, the dissociation rate was determined. The dissociation rate was 0.02/sec.

[2] = tested on: calf thymus DNA (hybrid DNA); assay: Detection of hybrid DNA fragment using fluorescent intercalator (fluorometry); settings: intercalator 1 M; calf thymus DNA 100 μM; 5 mM phosphate buffer pH 7.0, sodium sulfate 5 mM; excitation 434 nm
Protocol: (§2) The fluorescent intercalator (1 M) prepared above was placed in an aqueous 5 mM phosphate buffer solution (pH 7.0) containing a calf thymus DNA (hybrid DNA, 100 μM) and sodium sulfate (5 mM). In the buffer solution, the fluorescent intercalator was intercalated into the hybrid DNA. The fluorescence emitted by the buffer solution containing the hybrid DNA having the intercalated fluorescent intercalator was fluorometrically measured in the wavelength region of 440 to 600 nm by exciting with a light of 434 nm.
(§3) The fluorescence emitted by the same buffer solution containing no calf thymus DNA (i.e., hybrid DNA) was also measured in the same manner.

[3] = tested on: single stranded DNA (calf thymus DNA heated to 90° C. for 20 min.); assay: Fluorometry with single stranded DNA in place of hybrid DNA; settings: procedures of Example 1, excitation 434 nm
Protocol: as §2, §3
(§4) The same calf thymus DNA (hybrid DNA) as employed in Example 1 was heated to 90° C. for 20 min., to give a single stranded DNA.
(§5) The procedures of Example 1 were repeated using thus prepared single stranded DNA in place of the hybrid DNA.

[4] = tested on: single stranded DNA (calf thymus DNA heated to 90° C. for 20 min.); assay: Rate of dissociation of intercalator from single stranded DNA; settings: determined in the same manner as in Example 1 (SDS 0.5 vol. %)
Protocol: as §1, §4, §5

## COc1ccc2nc3cc(Cl)ccc3c(N)c2c1 [9-amino-6-chloro-2-methoxyacridine, reference compound]
[1]
  dissociation rate from hybrid DNA: 19.0 s⁻¹
[2]
  fluorescence strength at 475 nm, buffer solution containing hybrid DNA relative to buffer solution containing no hybrid DNA: approx. 6 times

## N,N-bis{3-[4-(3-(6-chloro-9-imino-2-methoxyacridinyl)propyl)-1,4-diazacyclohexyl]propyl}naphthalenediimide
[2]
  fluorescence strength at 475 nm, buffer solution containing hybrid DNA relative to buffer solution containing no hybrid DNA: not high

## N-{3-[4-(3-( 6-chloro-9-imino-2-methoxyacridinyl)propyl)-1,4-diazacyclohexyl]propyl}-N′-{3-[4-(3-aminopropyl)-1,4-diazacyclohexyl]propyl}naphthalenediimide
[3]
  fluorescence strength at 475 nm, buffer solution containing single stranded DNA relative to buffer solution containing no single stranded DNA: approx. 16 times
[1]
  dissociation rate from hybrid DNA: 0.02 s⁻¹
[4]
  dissociation rate from single stranded DNA: 1.2 s⁻¹
[2]
  fluorescence strength at 475 nm, buffer solution containing hybrid DNA relative to buffer solution containing no hybrid DNA: approx. 30 times
